In ChEMBL document CHEMBL1201862, “PubChem BioAssay data set” (2004):
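Protocol summary: plate cells (96-well), add compound at 5 concentrations, incubate 48 h, interpolate endpoints linearly. Abbreviation: GI50, concentration required for 50% inhibition of growth.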 Active and inactive are the calls of the source. No stated cut-off is given here; in the data, active = GI50 up to about 1.1 µM and inactive = higher.

Key:
Assay in all cases: NCI tumour cell line growth inhibition, 48 h
A498 = tested on: A498
A549 = tested on: A549
CCRF-CEM = tested on: CCRF-CEM
DU-145 = tested on: DU-145
EKVX = tested on: EKVX
HCT-116 = tested on: HCT-116
HCT-15 = tested on: HCT-15
HOP-92 = tested on: HOP-92
HT-29 = tested on: HT-29
MDA-MB-231 = tested on: MDA-MB-231
NCI-H23 = tested on: NCI-H23
NCI-H522 = tested on: NCI-H522
NCI/ADR-RES = tested on: NCI/ADR-RES
OVCAR-8 = tested on: OVCAR-8
SF-295 = tested on: SF-295
SF-539 = tested on: SF-539
SK-MEL-2 = tested on: SK-MEL-2
TK-10 = tested on: TK-10
RXF 393 = tested on: RXF 393

Compound	GI50 (A498)	GI50 (A549)	GI50 (CCRF-CEM)	GI50 (DU-145)	GI50 (EKVX)	GI50 (HCT-116)	GI50 (HCT-15) [µM]	GI50 (HOP-92)	GI50 (HT-29)	GI50 (MDA-MB-231)	GI50 (NCI-H23)	GI50 (NCI-H522)	GI50 (NCI/ADR-RES)	GI50 (OVCAR-8)	GI50 (SF-295)	GI50 (SF-539)	GI50 (SK-MEL-2)	GI50 (TK-10)	GI50 (RXF 393)
COc1cc(C2SCC(=O)N2c2ccc(-n3c(-c4ccccc4)nc4ccccc4c3=O)cc2)ccc1O (stereo not given)	> 100 µM (inactive)	74.8 µM (inactive)	27.2 µM (inactive)	> 100 µM (inactive)	> 100 µM (inactive)	50.1 µM (inactive)	64.1	13.3 µM (inactive)	> 100 µM (inactive)	97.9 µM (inactive)	> 100 µM (inactive)	33 µM (inactive)	34.3 µM (inactive)	> 100 µM (inactive)	84.5 µM (inactive)	> 100 µM (inactive)	> 100 µM (inactive)	> 100 µM (inactive)	
O=C(OCc1ccccc1CN1CCOCC1)c1cccc(Br)c1	> 100 µM (inactive)	28.7 µM (inactive)		71 µM (inactive)	34.5 µM (inactive)	32.9 µM (inactive)	36.4	43.6 µM (inactive)	16 µM (inactive)	33.7 µM (inactive)	27.9 µM (inactive)	20.9 µM (inactive)	26.7 µM (inactive)	44.5 µM (inactive)		43.6 µM (inactive)	22.3 µM (inactive)		78.7 µM (inactive)
CC(C)C(=O)C(C)(C)CCc1ccccn1	> 100 µM (inactive)	> 100 µM (inactive)	> 100 µM (inactive)	> 100 µM (inactive)	> 100 µM (inactive)	> 100 µM (inactive)	> 100	> 100 µM (inactive)	> 100 µM (inactive)	> 100 µM (inactive)	> 100 µM (inactive)	> 100 µM (inactive)	> 100 µM (inactive)	> 100 µM (inactive)	> 100 µM (inactive)		> 100 µM (inactive)	> 100 µM (inactive)	> 100 µM (inactive)
Cc1cc(O)c(C(C)C)cc1NC(=O)Nc1cccc2ccccc12	13.1 µM (inactive)	17.5 µM (inactive)		15 µM (inactive)	14.7 µM (inactive)	15.6 µM (inactive)	20.7	17.4 µM (inactive)	17.5 µM (inactive)	17.7 µM (inactive)	19.3 µM (inactive)	15.1 µM (inactive)	20.9 µM (inactive)	30.8 µM (inactive)	13.8 µM (inactive)		15.3 µM (inactive)	18.2 µM (inactive)	14.2 µM (inactive)
c1ccc([P+](Cc2ccc(C[P+](c3ccccc3)(c3ccccc3)c3ccccc3)cc2)(c2ccccc2)c2ccccc2)cc1	> 100 µM (inactive)	45.7 µM (inactive)	71 µM (inactive)	86.3 µM (inactive)	21.8 µM (inactive)	12.4 µM (inactive)	> 100	26.3 µM (inactive)	25 µM (inactive)	61.8 µM (inactive)	32.7 µM (inactive)	62.2 µM (inactive)	> 100 µM (inactive)	45.8 µM (inactive)	35.6 µM (inactive)	31.2 µM (inactive)		81.7 µM (inactive)	61.4 µM (inactive)
Cc1c(N2CCCC2)cc2c(c1NC(=O)c1ccccc1Cl)C(C)(C)CC2(C)C	15 µM (inactive)	12.9 µM (inactive)		15.9 µM (inactive)	14.5 µM (inactive)	10.6 µM (inactive)	14.6	11.5 µM (inactive)	14.3 µM (inactive)	15.4 µM (inactive)	14.7 µM (inactive)	13.1 µM (inactive)	13.4 µM (inactive)	16 µM (inactive)	13.3 µM (inactive)	19.8 µM (inactive)	16.3 µM (inactive)	11.1 µM (inactive)	14.3 µM (inactive)
CC1OC(OC2C(OC(=O)[C@]34CCC(C)(C)C[C@H]3C3=CC[C@@H]5[C@@]6(C)CC[C@H](OC7OC(C(=O)O)C(O)C(O)C7O)C(C)(C)[C@@H]6CC[C@@]5(C)[C@]3(C)C[C@H]4O)OCC(O)C2O)C(O)C(OC2OCC(O)(CO)C2O)C1OC1OCC(O)C(O)C1O (stereo not given in full)	1.83 µM (inactive)	3.9 µM (inactive)	17 µM (inactive)	12.9 µM (inactive)	4.3 µM (inactive)	7.19 µM (inactive)	16.4	12.1 µM (inactive)	3.53 µM (inactive)	3.43 µM (inactive)	2.59 µM (inactive)	4.08 µM (inactive)	13.3 µM (inactive)	17.1 µM (inactive)	11.9 µM (inactive)		6.7 µM (inactive)		15.2 µM (inactive)
c1ccc2nc(CCC3CCCCN3)ccc2c1 (stereo not given)	77.6 µM (inactive)	> 100 µM (inactive)	83.2 µM (inactive)	> 100 µM (inactive)	42.2 µM (inactive)	> 100 µM (inactive)	> 100	> 100 µM (inactive)	> 100 µM (inactive)	> 100 µM (inactive)	72.9 µM (inactive)	40.6 µM (inactive)	49.5 µM (inactive)	> 100 µM (inactive)	53 µM (inactive)		> 100 µM (inactive)	> 100 µM (inactive)	> 100 µM (inactive)
